# What was measured:
# Dipeptidyl peptidase 8 = Dipeptidyl peptidase 8 (Homo sapiens, UniProt Q6V1X1); assay: Inhibition of human DPP8 after 15 mins by continuous fluorescent assay
# Dipeptidyl peptidase 9 = Dipeptidyl peptidase 9 (Homo sapiens, UniProt Q86TI2); assay: Inhibition of human DPP9 after 15 mins by continuous fluorescent assay
# [1] = Oral bioavailability in dog at 2 mg/kg, po; format: ADME, organism-based, Canis lupus familiaris; settings: in vivo
# [2] = Oral bioavailability in rat at 2 mg/kg, po; format: ADME, organism-based; settings: in vivo
# Mus musculus = organism: Mus musculus; assay: Reduction of blood glucose excursion in mouse by OGTT; format: functional, organism-based
# [3] = Plasma clearance in rat at 1 mg/kg, iv or 2 mg/kg, po; format: ADME, organism-based
# [4] = Plasma clearance in dog at 1 mg/kg, iv or 2 mg/kg, po; format: ADME, organism-based, Canis lupus familiaris
# [5] = biological target: Voltage-gated inwardly rectifying potassium channel KCNH2 (Homo sapiens, UniProt Q12809); assay: Inhibition of cardiac hERG
# Dipeptidyl peptidase 2 = Dipeptidyl peptidase 2 (Homo sapiens, UniProt Q9UHL4); assay: Inhibition of human recombinant QPP expressed in SF9 cells
# Voltage-gated inwardly rectifying potassium channel KCNH2, sequence (Q12809 whole entry): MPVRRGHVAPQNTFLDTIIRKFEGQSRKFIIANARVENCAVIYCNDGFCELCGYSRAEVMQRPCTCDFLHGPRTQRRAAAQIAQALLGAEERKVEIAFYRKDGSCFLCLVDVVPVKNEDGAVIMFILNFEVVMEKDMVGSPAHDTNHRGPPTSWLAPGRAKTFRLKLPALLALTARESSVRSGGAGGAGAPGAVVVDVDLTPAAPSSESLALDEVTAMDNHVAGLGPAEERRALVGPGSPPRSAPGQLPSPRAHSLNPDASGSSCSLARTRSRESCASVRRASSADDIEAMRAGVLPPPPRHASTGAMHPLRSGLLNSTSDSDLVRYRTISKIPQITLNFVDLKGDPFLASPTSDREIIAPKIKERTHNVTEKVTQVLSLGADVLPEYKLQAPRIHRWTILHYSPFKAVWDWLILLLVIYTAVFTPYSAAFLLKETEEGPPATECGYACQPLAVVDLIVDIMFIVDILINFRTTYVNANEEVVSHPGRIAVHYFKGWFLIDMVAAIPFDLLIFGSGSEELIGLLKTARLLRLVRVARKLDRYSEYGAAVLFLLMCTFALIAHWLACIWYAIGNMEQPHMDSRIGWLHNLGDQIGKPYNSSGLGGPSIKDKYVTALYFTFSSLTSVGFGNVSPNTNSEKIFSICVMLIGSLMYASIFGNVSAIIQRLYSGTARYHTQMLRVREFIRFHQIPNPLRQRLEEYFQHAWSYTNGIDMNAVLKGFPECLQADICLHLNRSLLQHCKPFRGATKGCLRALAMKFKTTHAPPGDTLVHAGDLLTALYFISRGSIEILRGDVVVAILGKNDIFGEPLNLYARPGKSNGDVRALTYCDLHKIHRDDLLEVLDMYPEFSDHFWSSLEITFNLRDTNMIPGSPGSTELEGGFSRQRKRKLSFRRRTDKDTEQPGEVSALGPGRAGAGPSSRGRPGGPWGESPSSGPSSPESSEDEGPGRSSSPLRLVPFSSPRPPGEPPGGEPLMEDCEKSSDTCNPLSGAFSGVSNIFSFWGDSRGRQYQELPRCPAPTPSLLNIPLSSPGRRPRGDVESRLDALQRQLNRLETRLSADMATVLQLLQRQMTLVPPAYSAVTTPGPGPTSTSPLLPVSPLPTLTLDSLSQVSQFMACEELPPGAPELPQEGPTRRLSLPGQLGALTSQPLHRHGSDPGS
# Dipeptidyl peptidase 9, sequence (Q86TI2 whole entry): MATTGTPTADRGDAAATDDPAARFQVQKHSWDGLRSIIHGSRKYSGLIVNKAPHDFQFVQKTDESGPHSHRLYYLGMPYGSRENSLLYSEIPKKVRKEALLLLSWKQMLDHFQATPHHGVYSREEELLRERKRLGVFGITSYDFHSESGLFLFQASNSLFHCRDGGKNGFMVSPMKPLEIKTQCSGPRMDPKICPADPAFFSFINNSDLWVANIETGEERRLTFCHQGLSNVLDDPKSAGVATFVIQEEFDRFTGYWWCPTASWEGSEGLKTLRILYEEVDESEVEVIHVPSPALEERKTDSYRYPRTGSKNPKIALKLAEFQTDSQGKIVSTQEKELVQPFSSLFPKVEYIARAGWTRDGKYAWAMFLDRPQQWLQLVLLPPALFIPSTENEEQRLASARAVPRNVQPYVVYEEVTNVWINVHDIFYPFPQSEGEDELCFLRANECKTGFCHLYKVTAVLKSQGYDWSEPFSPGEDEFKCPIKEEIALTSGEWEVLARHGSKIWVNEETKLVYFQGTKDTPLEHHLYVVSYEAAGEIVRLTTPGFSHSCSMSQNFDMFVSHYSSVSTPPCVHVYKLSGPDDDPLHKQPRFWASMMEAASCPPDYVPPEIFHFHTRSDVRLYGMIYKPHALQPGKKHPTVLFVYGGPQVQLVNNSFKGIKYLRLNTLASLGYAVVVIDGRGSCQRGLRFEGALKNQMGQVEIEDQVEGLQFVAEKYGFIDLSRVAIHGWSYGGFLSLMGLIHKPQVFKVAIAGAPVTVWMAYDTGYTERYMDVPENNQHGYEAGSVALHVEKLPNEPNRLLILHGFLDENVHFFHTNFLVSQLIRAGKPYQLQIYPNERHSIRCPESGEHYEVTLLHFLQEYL
# Dipeptidyl peptidase 8, sequence (Q6V1X1 whole entry): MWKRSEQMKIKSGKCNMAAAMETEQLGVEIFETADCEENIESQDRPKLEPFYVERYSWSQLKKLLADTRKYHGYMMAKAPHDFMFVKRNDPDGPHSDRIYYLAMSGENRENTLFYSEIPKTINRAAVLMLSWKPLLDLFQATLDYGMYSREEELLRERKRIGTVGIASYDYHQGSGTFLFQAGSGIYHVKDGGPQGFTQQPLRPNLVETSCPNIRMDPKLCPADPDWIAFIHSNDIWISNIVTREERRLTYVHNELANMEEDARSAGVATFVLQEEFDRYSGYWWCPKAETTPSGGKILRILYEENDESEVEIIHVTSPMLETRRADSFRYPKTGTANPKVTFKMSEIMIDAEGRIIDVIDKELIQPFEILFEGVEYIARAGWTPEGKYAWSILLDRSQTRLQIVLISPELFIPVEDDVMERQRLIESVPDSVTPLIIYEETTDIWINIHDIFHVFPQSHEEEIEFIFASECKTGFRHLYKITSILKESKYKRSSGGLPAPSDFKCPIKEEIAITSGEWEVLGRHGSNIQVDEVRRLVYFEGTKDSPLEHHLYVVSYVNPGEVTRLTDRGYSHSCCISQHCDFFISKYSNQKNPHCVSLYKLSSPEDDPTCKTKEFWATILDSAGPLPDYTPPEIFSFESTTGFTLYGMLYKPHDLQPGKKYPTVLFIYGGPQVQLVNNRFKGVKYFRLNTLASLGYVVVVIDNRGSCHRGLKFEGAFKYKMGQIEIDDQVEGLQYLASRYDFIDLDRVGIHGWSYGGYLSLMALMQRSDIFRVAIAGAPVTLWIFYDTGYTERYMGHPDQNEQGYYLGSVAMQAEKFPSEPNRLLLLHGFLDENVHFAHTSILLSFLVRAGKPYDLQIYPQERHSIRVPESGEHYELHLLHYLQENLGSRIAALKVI
SMILES,IC50 (Dipeptidyl peptidase 8),IC50 (Dipeptidyl peptidase 9),bioavailability [2],clearance [3],also measured
C[C@@H](c1ccc(N(C)C(=O)c2ccc(F)cc2)cc1)[C@H](N)C(=O)N1CC[C@H](F)C1,> 100 µM,> 100 µM,,,
CC(=O)N(C)C1CCC([C@H](C)[C@H](N)C(=O)N2CC[C@H](F)C2)CC1.Cl (some centres undefined),,> 100 µM,56%,42 mL/min/kg,bioavailability [1]: 83%; Activity (Mus musculus): Dose-dependent effect; clearance [4]: 4.4 mL/min/kg; IC50 [5]: > 90 µM
C[C@@H](C1CCC(N(C)C(=O)C2CC2)CC1)[C@H](N)C(=O)N1CC[C@H](F)C1.Cl (some centres undefined),,,46%,49 mL/min/kg,
Cc1ccc(C(=O)N(C)c2ccc([C@H](C(=O)N(C)C)[C@H](N)C(=O)N3CC[C@H](F)C3)cc2)cc1,> 100 µM,> 100 µM,,,IC50 (Dipeptidyl peptidase 2): > 100 µM
CN(C)C(=O)[C@@H](c1ccc(NS(=O)(=O)c2ccccc2)cc1)[C@H](N)C(=O)N1CC[C@H](F)C1,> 100 µM,> 100 µM,,,
CN(C)C(=O)[C@@H](c1ccc(N(C)C(=O)c2ccc(F)cc2)cc1)[C@H](N)C(=O)N1CC[C@H](F)C1.O=C(O)C(F)(F)F,> 100 µM,> 100 µM,6%,73 mL/min/kg,IC50 (Dipeptidyl peptidase 2): > 100 µM; IC50 [5]: > 90 µM
CC(=O)Nc1ccc([C@H](C(=O)N(C)C)[C@H](N)C(=O)N2CC[C@H](F)C2)cc1,,> 100 µM,,,IC50 (Dipeptidyl peptidase 2): > 100 µM
CC(=O)N(C)c1ccc([C@H](C(=O)N(C)C)[C@H](N)C(=O)N2CC[C@H](F)C2)cc1,> 100 µM,> 100 µM,,,IC50 (Dipeptidyl peptidase 2): > 100 µM
C[C@@H](C1CCC(N(C)C(=O)c2cccc(F)c2)CC1)[C@H](N)C(=O)N1CC[C@H](F)C1.Cl (some centres undefined),,,72%,40 mL/min/kg,
CN(C)C(=O)[C@@H](C1CCC(N(C)C(=O)c2cccc(F)c2)CC1)[C@H](N)C(=O)N1CC[C@H](F)C1.Cl (some centres undefined),> 100 µM,> 100 µM,25%,27 mL/min/kg,IC50 [5]: > 90 µM
CN(C)C(=O)[C@@H](C1CCC(NS(=O)(=O)c2ccc(OC(F)(F)F)cc2)CC1)[C@H](N)C(=O)N1CC[C@H](F)C1 (some centres undefined),> 100 µM,> 100 µM,,,
Cc1ccc(S(=O)(=O)N(C)c2ccc([C@H](C(=O)N(C)C)[C@H](N)C(=O)N3CC[C@H](F)C3)cc2)cc1,> 100 µM,> 100 µM,,,IC50 (Dipeptidyl peptidase 2): > 100 µM

# Now from value to compound, other results behind:
IC50 (Dipeptidyl peptidase 8),IC50 (Dipeptidyl peptidase 9),bioavailability [2],clearance [3],SMILES,also measured
> 100 µM,> 100 µM,,,CC(=O)N(C)c1ccc([C@H](C)[C@H](N)C(=O)N2CC[C@H](F)C2)cc1,
> 100 µM,> 100 µM,3%,18 mL/min/kg,CC(=O)N(C)C1CCC([C@H](C(=O)N(C)C)[C@H](N)C(=O)N2CC[C@H](F)C2)CC1.Cl (some centres undefined),
,> 100 µM,,,CC(=O)Nc1ccc([C@H](C)[C@H](N)C(=O)N2CC[C@H](F)C2)cc1,
,,,24 mL/min/kg,Cl.N[C@H](C(=O)N1CC[C@H](F)C1)C1CCC(NS(=O)(=O)c2ccc(F)cc2F)CC1 (some centres undefined),
> 100 µM,> 100 µM,,,CN(C)C(=O)[C@@H](C1CCC(NS(=O)(=O)c2ccc(F)cc2F)CC1)[C@H](N)C(=O)N1CC[C@H](F)C1 (some centres undefined),

# Source: ChEMBL document CHEMBL1139199 (Bioorg Med Chem Lett, 2007)
